39 compounds from patent publication US12624034B2, “Non-covalent modifiers of AKT1 and uses thereof” (Terremoto Biosciences, Inc., priority 2023, dated 2026) can be followed below.

In one assay the target is T1, AKT1 WT (Homo sapiens, UniProt P31749).
T1 construct: expressed in transfected cells; host or cells: HEK293
Nature of the assay: Live cell AKT1 WT target engagement by NanoBRET competitive probe displacement in HEK293 cells. It counts as binding. Conditions: 2 h at 37° C., read-out: AKT1 WT IC50. Here is the method: (§1) Determining live cell AKT1 E17K, AKT1 WT, and AKT2 target engagement by NanoBRET competitive probe displacement. […] Briefly, HEK293 cells were transfected with plasmids encoding kinase-NanoLuciferase fusion proteins overnight. Cells were then treated with serial dilutions of compound and an ˜EC50 concentration of fluorescently-tagged ATP-competitive tracer (Promega). After incubation for 2 h at 37° C., luciferase substrate and extracellular luciferase inhibitor were added to all wells, and luminescent intensity at 460 nm and 600 nm were measured on a multimode plate-reader. The ratio of E600/E460 was calculated to give the tracer engagement signal (BRET). IC50 values were calculated by fitting BRET values to a log(inhibitor) vs. response Hill equation.
In general terms: BRET reads energy transfer from a luciferase to a nearby fluorophore.

The target in a further assay is T2, AKT2 (Homo sapiens, UniProt P31751).
T2 construct: expressed in transfected cells; host or cells: HEK293
As to the kind of experiment: Live cell AKT2 target engagement by NanoBRET competitive probe displacement in HEK293 cells. The class given is binding. The conditions noted are these: 2 h at 37° C., read-out: AKT2 IC50. On the procedure:
as §1

The mark [1] stands for this setting: NanoBRET competitive probe displacement, live HEK293 cells.
The mark [2] stands for this setting: NanoBRET live cell target engagement, HEK293 cells.

Read-outs that look alike come from different tables or passages of the source. Where only a bound is given, the exact number is not on record here.

T1 sequence (P31749 whole entry): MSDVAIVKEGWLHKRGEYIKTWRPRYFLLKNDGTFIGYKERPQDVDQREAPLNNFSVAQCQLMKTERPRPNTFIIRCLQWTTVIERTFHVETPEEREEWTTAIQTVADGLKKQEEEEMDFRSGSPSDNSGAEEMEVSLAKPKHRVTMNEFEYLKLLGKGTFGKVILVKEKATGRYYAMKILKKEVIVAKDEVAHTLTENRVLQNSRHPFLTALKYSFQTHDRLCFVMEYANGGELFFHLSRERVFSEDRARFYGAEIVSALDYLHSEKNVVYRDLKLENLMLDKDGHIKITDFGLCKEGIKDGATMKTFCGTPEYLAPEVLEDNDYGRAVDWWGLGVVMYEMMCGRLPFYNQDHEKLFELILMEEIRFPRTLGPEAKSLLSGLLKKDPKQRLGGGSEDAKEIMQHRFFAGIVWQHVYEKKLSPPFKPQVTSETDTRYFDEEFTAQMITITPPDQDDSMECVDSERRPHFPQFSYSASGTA
T2 sequence (P31751 whole entry): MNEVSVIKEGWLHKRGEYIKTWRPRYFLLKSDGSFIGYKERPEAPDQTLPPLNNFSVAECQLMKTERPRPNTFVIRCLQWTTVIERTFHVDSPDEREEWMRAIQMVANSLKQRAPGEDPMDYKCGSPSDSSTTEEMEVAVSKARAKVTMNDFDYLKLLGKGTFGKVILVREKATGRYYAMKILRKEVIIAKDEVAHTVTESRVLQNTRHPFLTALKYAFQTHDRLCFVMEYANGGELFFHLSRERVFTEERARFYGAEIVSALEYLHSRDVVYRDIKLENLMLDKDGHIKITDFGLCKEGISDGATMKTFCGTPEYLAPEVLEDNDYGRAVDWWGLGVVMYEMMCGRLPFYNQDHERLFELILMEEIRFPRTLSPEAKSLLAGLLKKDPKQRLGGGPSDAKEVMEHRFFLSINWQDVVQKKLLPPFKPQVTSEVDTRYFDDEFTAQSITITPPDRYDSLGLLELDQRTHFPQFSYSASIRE

For `COc1csc(-c2ccc3nc(-c4cccnc4N)n(-c4ccc5c(c4)CC(F)[C@@H]5NC4CCN(C(=O)C5CC5)CC4)c3n2)n1` (stereo partly drawn) [Compound 559], the values for the IC50 on AKT1 WT (setting [1]) and on AKT2 (setting [1]) were 5.67 nM and 268 nM, respectively.

`Nc1ncccc1-c1nc2ccc(-n3cccn3)nc2n1-c1ccc2c(c1)CC[C@@H]2NC(=O)c1cc2n(n1)CCO2` [Compound 242]: the IC50 (commonly the midpoint of a concentration-inhibition curve) was 70 nM at AKT1 WT (setting [2]) and 3220 nM at AKT2 (setting [2]).

Regarding `Cc1oncc1C(=O)N1CCC(N[C@H]2CCc3cc(-n4c(-c5cccnc5N)nc5ccc(-n6cccn6)nc54)ccc32)CC1` [Compound 489], the IC50 was 92.6 nM at AKT1 WT (setting [1]) and 5410 nM at AKT2 (setting [1]).

As to `Cn1nc(C(=O)N[C@H]2CCc3cc(-n4c(-c5cccnc5N)nc5ccc(-n6cccn6)nc54)ccc32)cc1C(F)F` [Compound 266], the IC50 on AKT1 WT (setting [2]) was 18.3 nM; on AKT2 (setting [2]), 468 nM.

`Nc1ncccc1-c1nc2ccc(-n3cccn3)nc2n1-c1ccc2c(c1)CC[C@@H]2NC1CCc2ccncc21` (single isomer, unassigned) [Example 495, (S*)—N—((S)-5-(2-(2-aminopyridin-3-yl)-5-(1H-pyrazol-1-yl)-3H-imidazo[4,5-b]pyridin-3-yl)-2,3-dihydro-1H-inden-1-yl)-6,7-dihydro-5H-cyclopenta[c]pyridin-7-amine]: the IC50 on AKT1 WT (setting [1]) is 9.4 nM; on AKT2 (setting [1]) it was 197 nM.

Take `Nc1ncccc1-c1nc2ccc(C#CC3CCC3)nc2n1-c1ccc2c(c1)CC[C@@H]2NC(=O)c1ccc(C(F)F)nc1` [Compound 226]: the values for the IC50 on AKT1 WT (setting [2]) and on AKT2 (setting [2]) were 45.5 nM and 2020 nM, respectively.

In the case of `Cc1ncccc1OCC1CCc2cc(-n3c(-c4cccnc4N)nc4ccc(-n5cccn5)nc43)ccc21` (single isomer, unassigned) [Compound 253, (*)-3-(3-(1-(((2-methylpyridin-3-yl)oxy)methyl)-2,3-dihydro-1H-inden-5-yl)-5-(1H-pyrazol-1-yl)-3H-imidazo[4,5-b]pyridin-2-yl)pyridin-2-amine], the IC50 at AKT1 WT (setting [2]) came to 65.8 nM; on AKT2 (setting [2]) it was 2120 nM.

As for `Nc1ncccc1-c1nc2ccc(-n3cccn3)nc2n1-c1ccc2c(c1)CCC2n1cccn1` (stereo not drawn) [Compound 325, 3-(3-(1-(1H-pyrazol-1-yl)-2,3-dihydro-1H-inden-5-yl)-5-(1H-pyrazol-1-yl)-3H-imidazo[4,5-b]pyridin-2-yl)pyridin-2-amine], the values for the IC50 on AKT1 WT (setting [2]) and on AKT2 (setting [2]) were 120 nM and 4290 nM, respectively.

For `Nc1ncccc1-c1nc2ccc(-n3cccn3)nc2n1-c1ccc2c(c1)CC[C@@H]2NC(=O)c1ccnn1C(F)F` [Compound 170], the IC50 was 69.6 nM on AKT1 WT (setting [2]) and 1380 nM on AKT2 (setting [2]).

In the case of `Nc1ncccc1-c1nc2ccc(C#C[C@@H]3CCO3)nc2n1-c1ccc2c(c1)CC[C@@H]2NC(=O)c1ccc(C(F)F)nc1` [Compound 454], the IC50 at AKT1 WT (setting [1]) is 37.5 nM; on AKT2 (setting [1]), > 10000 nM.

As for `Nc1ncccc1-c1nc2ccc(-n3nccn3)nc2n1-c1ccc2c(c1)CC[C@@H]2NCc1ccc(C(F)F)nc1` [Compound 234], the concentration for half-maximal inhibition (IC50) was found to be 168 nM on AKT1 WT (setting [2]) and 4550 nM on AKT2 (setting [2]).

With `CCc1ncccc1C(=O)N[C@H]1CCc2cc(-n3c(-c4cccnc4N)nc4ccc(-n5cccn5)nc43)ccc21` [Compound 86], the IC50 was determined as 46.8 nM at AKT1 WT (setting [2]) and 427 nM at AKT2 (setting [2]).

For `Cc1ncc(C(=O)N[C@H]2CCc3cc(-n4c(-c5cccnc5N)nc5ccc(-n6cccn6)nc54)ccc32)cn1` [Compound 143], the IC50 is 24.9 nM on AKT1 WT (setting [2]) and 138 nM on AKT2 (setting [2]).

With `CCc1cc(C(=O)N[C@H]2CCc3cc(-n4c(-c5cccnc5N)nc5ccc(-n6cccn6)nc54)ccc32)ccn1` [Compound 204], the IC50 was found to be 9.42 nM on AKT1 WT (setting [2]) and 53.1 nM at AKT2 (setting [2]).

For `COc1cc(C(=O)N[C@H]2CCc3cc(-n4c(-c5cccnc5N)nc5ccc(-n6cccn6)nc54)ccc32)cc(F)n1` [Compound 344], the IC50 at AKT1 WT (setting [2]) stood at 7.97 nM; on AKT2 (setting [2]), 19.6 nM.

Take `Nc1ncccc1-c1nc2ccc(-n3cccn3)nc2n1-c1ccc2c(c1)CC[C@@H]2NC1CCc2cc(O)ccc21` (stereo partly drawn) [Compound 498]: the IC50 is 43 nM at AKT1 WT (setting [1]) and 620 nM at AKT2 (setting [1]).

`Cc1nc2ncccc2c(=O)n1[C@H]1CCc2cc(-n3c(-c4cccnc4N)nc4ccc(-n5cccn5)nc43)ccc21` [Compound 180]: the half-inhibitory concentration (IC50) came to 91.8 nM at AKT1 WT (setting [2]) and 1150 nM on AKT2 (setting [2]).

As to `N[C@H]1CCc2cc(-n3c(-c4ccccc4F)nc4ccc(-n5cccn5)nc43)ccc21` [Compound 527], the IC50 on AKT1 WT (setting [1]) amounted to 19.5 nM; on AKT2 (setting [1]) it was 1150 nM.

Take `Nc1ncccc1-c1nc2ccc(-n3cccn3)nc2n1-c1ccc2c(c1)CC[C@@H]2NC(=O)c1cccnc1C(F)F` [Compound 79]: the IC50 is 19.5 nM on AKT1 WT (setting [2]) and 540 nM at AKT2 (setting [2]).

On to `Cc1cnc2ccc(C(=O)N[C@H]3CCc4cc(-n5c(-c6cccnc6N)nc6ccc(-n7cccn7)nc65)ccc43)cn12` [Compound 71], for which the concentration for half-maximal inhibition (IC50) amounted to 4.63 nM at AKT1 WT (setting [2]) and 69.7 nM on AKT2 (setting [2]).

As for `Cc1ccc(C(=O)N[C@H]2CCc3cc(-n4c(-c5cccnc5N)nc5ccc(-n6cnc(C(F)F)n6)nc54)ccc32)cn1` [Compound 430], the IC50 at AKT1 WT (setting [1]) amounted to 83.5 nM; on AKT2 (setting [1]), 2490 nM.

`Nc1ncccc1-c1nc2ccc(-n3cccn3)nc2n1-c1ccc2c(c1)CC[C@@H]2N1Cc2ccncc2C1` [Compound 494]: the IC50 amounted to 199 nM at AKT1 WT (setting [1]) and 6860 nM at AKT2 (setting [1]).

Consider `Nc1ncccc1-c1nc2ccc(-n3cccn3)nc2n1-c1ccc2c(c1)CC[C@@H]2NC(=O)c1cnc2c(c1)CCC2(F)F` [Compound 66], for which the half-inhibitory concentration (IC50) amounted to 8.95 nM at AKT1 WT (setting [2]) and 15 nM on AKT2 (setting [2]).

`Nc1ncccc1-c1nc2ccc(-n3cccn3)nc2n1-c1ccc2c(c1)CC[C@@H]2NC1CCN(C(=O)C2CC2)C1` (stereo partly drawn) [Compound 462]: the figures for the IC50 on AKT1 WT (setting [1]) and on AKT2 (setting [1]) were 225 nM and 2370 nM, respectively.

Take `C#Cc1ccc2nc(-c3cccnc3N)n(-c3ccc4c(c3)CC[C@@H]4NC(=O)c3ccc(C(F)F)nc3)c2n1` [Compound 404]: the IC50 at AKT1 WT (setting [1]) worked out at 33.7 nM; at AKT2 (setting [1]), 2820 nM.

On to `Nc1ncccc1-c1nc2ccc(C#CC3CC3)nc2n1-c1ccc2c(c1)CC[C@@H]2NC(=O)c1ccc(F)c(F)c1` [Compound 459], for which the IC50 at AKT1 WT (setting [1]) is 26.6 nM; at AKT2 (setting [1]), 782 nM.

For `Nc1ncccc1-c1nc2ccc(-n3cccn3)nc2n1-c1ccc2c(c1)CC[C@@H]2n1ccnc1` [Compound 273, (S)-3-(3-(1-(1H-imidazol-1-yl)-2,3-dihydro-1H-inden-5-yl)-5-(1H-pyrazol-1-yl)-3H-imidazo[4,5-b]pyridin-2-yl)pyridin-2-amine], the IC50 at AKT1 WT (setting [2]) worked out at 11.6 nM; at AKT2 (setting [2]), 165 nM.

For `Nc1ncccc1-c1nc2ccc(-n3cccn3)nc2n1-c1ccc2c(c1)CC[C@@H]2n1cnnc1-c1ccccc1` [Compound 178], the figures for the IC50 on AKT1 WT (setting [2]) and on AKT2 (setting [2]) were 88.2 nM and 3520 nM, respectively.

Regarding `N#Cc1cc(-n2cccn2)nc2c1nc(-c1cccnc1N)n2-c1ccc2c(c1)CC[C@@H]2NC(=O)c1ccc(C(F)F)nc1` [Compound 123, (S)—N-(5-(2-(2-aminopyridin-3-yl)-7-cyano-5-(1H-pyrazol-1-yl)-3H-imidazo[4,5-b]pyridin-3-yl)-2,3-dihydro-1H-inden-1-yl)-6-(difluoromethyl)nicotinamide], the IC50 is 9.84 nM at AKT1 WT (setting [2]) and 114 nM at AKT2 (setting [2]).

Turning to `Cn1nc(C(=O)N[C@H]2CCc3cc(-n4c(-c5cccnc5N)nc5ccc(-n6cccn6)nc54)ccc32)cc1C#N` [Compound 214], the IC50 on AKT1 WT (setting [2]) worked out at 56.9 nM; at AKT2 (setting [2]) it was 2690 nM.

`Nc1ncccc1-c1nc2ccc(-n3cccn3)nc2n1-c1ccc2c(c1)CC[C@@H]2NC(=O)c1ccnc2c1CCC2` [Compound 235]: the values for the IC50 on AKT1 WT (setting [2]) and at AKT2 (setting [2]) were 22.8 nM and 111 nM, respectively.

With `Nc1ncccc1-c1nc2ccc(-n3cccn3)nc2n1-c1ccc2c(c1)CC[C@@H]2NC(=O)c1cncc(OC(F)(F)F)c1` [Compound 138], the IC50 at AKT1 WT (setting [2]) was 13.5 nM; at AKT2 (setting [2]), 284 nM.

With `Nc1ncccc1-c1nc2ccc(-n3cccn3)nc2n1-c1ccc2c(c1)CC[C@@H]2n1cc(C2COC2)nn1` [Compound 220], the IC50 at AKT1 WT (setting [2]) amounted to 68.2 nM; at AKT2 (setting [2]), 6260 nM.

As to `Cc1cnc(C)c(C(=O)N[C@H]2CCc3cc(-n4c(-c5cccnc5N)nc5ccc(-n6cccn6)nc54)ccc32)n1` [Compound 183], the IC50 at AKT1 WT (setting [2]) was 330 nM; on AKT2 (setting [2]) it was > 10000 nM.

Consider `Nc1ncccc1-c1nc2ccc(-n3cccn3)nc2n1-c1ccc2c(c1)CC[C@@H]2NC(=O)c1ccc(F)c(O)c1` [Compound 293], for which the IC50 on AKT1 WT (setting [2]) is 12.3 nM; on AKT2 (setting [2]) it was 83.8 nM.

As to `Cn1c(=O)[nH]c2ccc(C(=O)N[C@H]3CCc4cc(-n5c(-c6cccnc6N)nc6ccc(-n7cccn7)nc65)ccc43)cc21` [Compound 230], the IC50 on AKT1 WT (setting [2]) is 13.6 nM; on AKT2 (setting [2]) it was 68.2 nM.

For the compound `Nc1ncccc1-c1nc2ccc(-n3ccc(OC(F)F)n3)nc2n1-c1ccc2c(c1)CC[C@@H]2NC1CCN(C(=O)C2CC2)CC1` [Compound 483], the values for the IC50 on AKT1 WT (setting [1]) and on AKT2 (setting [1]) were 30.9 nM and 7440 nM, respectively.

`COc1ccn(-c2ccc3nc(-c4cccnc4N)n(-c4ccc5c(c4)CC(F)[C@@H]5NC4CN(C(=O)C5CC5)C4)c3n2)n1` (stereo partly drawn) [Compound 493]: the IC50 turned out to be 57.6 nM at AKT1 WT (setting [1]) and 973 nM on AKT2 (setting [1]).

With `COc1cc(C(=O)N[C@H]2CCc3cc(-n4c(-c5cccnc5N)nc5ccc(-n6cccn6)nc54)ccc32)nn1C(F)F` [Compound 324], the half-maximal inhibitory concentration (IC50) at AKT1 WT (setting [2]) is 23.1 nM; on AKT2 (setting [2]), 502 nM.
